Where a name gives a salt, the structure may show the parent alone.
Structure (SMILES)	melting point [°C]
COc1ccc(NC(=O)c2ccccc2NC(=O)c2cccc(C(=N)N)c2)cc1 (as salt: salt) [Example 12, 2-[3-(amino(imino)methyl)benzoylamino]-N-(4-methoxyphenyl)benzamide]	163 to 167
CC(C)(C)c1ccc(C(=O)Nc2ccccc2C(=O)Nc2cccc(C(=N)N)c2)cc1.Cl	194 to 196

Further lines, results first:

melting point [°C]	Structure (SMILES)
163 to 165	CCOc1ccc(C(=O)Nc2ccccc2NC(=O)c2cccc(C(=N)N)c2)cc1 [Example 38, N^1-[3-(amino(imino)methyl)benzoyl]-N^2-(4-ethoxybenzoyl)-1,2-benzenediamine]
227 to 229	CC(C)c1ccc(C(=O)Nc2ccccc2NC(=O)c2cccc(C(=N)N)c2)cc1.Cl
196 to 198	CC(C)(C)c1ccc(C(=O)Nc2ccccc2NC(=O)c2cccc(C(=N)N)c2)cc1.Cl
